Laboratory results taken from DBAASP.
Converted amounts (≈) assume the structure as drawn. “And” between values parts separate entries of the source, which are not always exact repeats. Equal values may be shown once.

Tests used:
Test in all cases: ≥ marks a high value that may be exact or a test limit, other limits are often not marked, values filed in µg/mL are converted to µM
[1] = test system: Salmonella typhimurium PTCC 1428
[2] = test system: Streptococcus dysgalactiae PTCC 1074
[3] = test system: Streptococcus agalactiae PTCC 1365
[4] = test system: Klebsiella pneumoniae PTCC 1388
[5] = test system: Staphylococcus aureus PTCC 1431
[6] = test system: Escherichia coli HP101BA 7601c
[7] = test system: Klebsiella pneumoniae 01-252
[8] = test system: Escherichia coli 09-240
[9] = test system: Pseudomonas aeruginosa 5106
[10] = test system: Pseudomonas aeruginosa ATCC 9027
[11] = test system: Escherichia coli ATCC 25922
[12] = test system: Klebsiella pneumoniae 01-239
[13] = test system: Escherichia coli 170
[14] = test system: Escherichia coli 09-280
[15] = test system: Acinetobacter baumannii 5821
[16] = test system: Enterobacter cloacae 06-267
[17] = test system: Pseudomonas aeruginosa ATCC 27853
[18] = test system: Escherichia coli 5509
[19] = test system: Staphylococcus aureus 01-001
[20] = test system: Staphylococcus aureus 06-051
[21] = test system: Enterobacter cloacae 14-262
[22] = test system: Pseudomonas aeruginosa 3599
[23] = test system: Staphylococcus aureus ATCC 29213
[24] = test system: Escherichia coli B
[25] = test system: Pseudomonas aeruginosa
[26] = test system: Bacillus subtilis 168
[27] = test system: Candida albicans F7-39/IDE99
[28] = test system: Micrococcus luteus CCM 144
[29] = test system: Staphylococcus aureus
[30] = test system: Escherichia coli ATCC 11775
[31] = test system: Escherichia coli AS1.349
[32] = test system: Proteus mirabilis CICC 22931
[33] = test system: Acinetobacter baumannii
[34] = test system: Staphylococcus aureus ATCC 12600
[35] = test system: Staphylococcus epidermidis CICC 23664
[36] = test system: Klebsiella aerogenes CGMCC 1.876
[37] = test system: Pseudomonas fluorescens
[38] = test system: Staphylococcus aureus AS1.72
[39] = test system: Lactococcus lactis AS1.1690
[40] = test system: Bacillus cereus AS1.126
[41] = test system: Staphylococcus epidermidis
[42] = test system: Pseudomonas aeruginosa CGMCC 1.860
[43] = test system: Enterococcus faecalis CGMCC 1.595
[44] = test system: Klebsiella pneumoniae subsp. pneumoniae CGMCC 1.176
[45] = test system: Lactococcus lactis
[46] = test system: Enterobacter cloacae CGMCC 1.58
[47] = test system: Acinetobacter baumannii CICC 22934
[48] = test system: Enterococcus faecium
[49] = test system: Klebsiella pneumoniae
[50] = test system: Enterobacter cloacae
[51] = test system: Klebsiella aerogenes
[52] = test system: Enterococcus faecium CGMCC 1.2334
[53] = test system: Bacillus cereus
[54] = test system: Escherichia coli

CC(C)C[C@H](NC(=O)[C@@H](NC(=O)CNC(=O)[C@H](C)NC(=O)[C@H](CC(C)C)NC(=O)[C@@H](NC(=O)[C@@H]1CCCN1C(=O)[C@H](CC(C)C)NC(=O)[C@@H](N)Cc1ccccc1)C(C)C)C(C)C)C(=O)N[C@@H](CO)C(=O)N[C@@H](CCCN=C(N)N)C(=O)N[C@@H](C)C(N)=O [FLPVLAGVLSRA]
MIC [1]: 25.6 µM (≈ 31.8 µg/mL) | MIC [2]: 17.5 µM (≈ 21.8 µg/mL) | MIC [3]: 24.5 µM (≈ 30.5 µg/mL) | MIC [4]: 28.2 µM (≈ 35.1 µg/mL) | MIC [5]: ≥ 33.9 µM | MIC [6]: 27.8 µM (≈ 34.5 µg/mL)

CC[C@H](C)[C@H](NC(=O)[C@H](C)NC(=O)[C@H](CC(N)=O)NC(=O)[C@H](CCCCN)NC(=O)[C@@H](NC(=O)CNC(=O)[C@H](CCC(=O)O)NC(=O)[C@H](Cc1c[nH]c2ccccc12)NC(=O)[C@H](CC(C)C)NC(=O)[C@H](CCCCN)NC(=O)CNC(=O)[C@H](Cc1c[nH]c2ccccc12)NC(=O)[C@@H](N)Cc1ccccc1)C(C)C)C(N)=O [FWGKLWEGVKNAI]
MIC [7]: ≥ 32 µM | MIC [8]: ≥ 50 µM | MIC [9]: ≥ 32 µM | MIC [10]: 40 µM (≈ 61.9 µg/mL) | MIC [11]: 25 µM (≈ 38.7 µg/mL) | MIC [12]: ≥ 50 µM | MIC [13]: ≥ 32 µM | MIC [14]: ≥ 32 µM | MIC [15]: ≥ 38 µM | MIC [16]: ≥ 32 µM | MIC [17]: > 32 µM | MIC [18]: ≥ 32 µM | MIC [19]: ≥ 32 µM | MIC [20]: ≥ 32 µM | MIC [21]: ≥ 50 µM | MIC [22]: ≥ 32 µM | MIC [23]: 32 µM (≈ 49.5 µg/mL)

CC[C@H](C)[C@@H]1NC(=O)[C@H](CCCCN)NC(=O)[C@H](CCCCN)NC(=O)[C@@H]2CSSC[C@H](NC(=O)[C@H](C)NC(=O)[C@H](C(C)C)NC(=O)[C@@H](NC(=O)[C@@H](NC(=O)[C@@H](NC(=O)[C@H](CCCCN)NC(=O)[C@H](CCCCN)NC(=O)[C@@H](NC(=O)[C@H](CC(=O)O)NC(=O)[C@@H](N)CC(C)C)C(C)C)[C@@H](C)CC)[C@@H](C)CC)CSSC[C@@H](C(=O)N3CCC[C@H]3C(=O)N[C@@H](CCCCN)C(=O)O)NC1=O)C(=O)N[C@@H](CCCCN)C(=O)N[C@@H]([C@@H](C)CC)C(=O)N[C@@H](CCCCN)C(=O)N1CCC[C@H]1C(=O)N[C@@H](CC(N)=O)C(=O)N1CCC[C@H]1C(=O)N[C@@H](C)C(=O)N2 [LDVKKIICVACKIKPNPACKKICPK]
MIC [24]: ≥ 63.3 µM | MIC [25]: > 100 µM | MIC [26]: 3.3 µM (≈ 9.08 µg/mL) | MIC [27]: 24.2 µM (≈ 66.6 µg/mL) | MIC [28]: 1.6 µM (≈ 4.4 µg/mL) | MIC [29]: > 100 µM

CC(C)C[C@H](NC(=O)CNC(=O)[C@H](Cc1ccccc1)NC(=O)[C@H](CCCN=C(N)N)NC(=O)[C@H](CCCN=C(N)N)NC(=O)CNC(=O)[C@H](Cc1cnc[nH]1)NC(=O)[C@H](CCCN=C(N)N)NC(=O)CNC(=O)[C@@H](NC(=O)[C@H](C)NC(=O)[C@@H](N)CO)C(C)C)C(=O)N[C@@H](CCCN=C(N)N)C(=O)N[C@@H](CCCCN)C(=O)N[C@@H](Cc1cnc[nH]1)C(=O)N[C@@H](CCCN=C(N)N)C(=O)N[C@@H](CCCCN)C(=O)N[C@@H](Cc1cnc[nH]1)C(=O)O [SAVGRHGRRFGLRKHRKH]
MIC [30]: 3 µM (≈ 6.47 µg/mL) | MIC [31]: ≥ 500 µM | MIC [25]: > 50 µM | MIC [32]: ≥ 100 µM | MIC [33]: ≥ 50 µM | MIC [34]: 6 µM (≈ 12.9 µg/mL) | MIC [35]: 7.2 µM (≈ 15.5 µg/mL) | MIC [36]: ≥ 500 µM | MIC [37]: ≥ 50 µM | MIC [38]: ≥ 58 µM | MIC [39]: 15.6 µM (≈ 33.6 µg/mL) | MIC [40]: 11.6 µM (≈ 25 µg/mL) | MIC [41]: ≥ 50 µM | MIC [42]: ≥ 380 µM | MIC [43]: ≥ 33.3 µM | MIC [44]: ≥ 500 µM | MIC [45]: 11.6 µM (≈ 25 µg/mL) | MIC [46]: ≥ 500 µM | MIC [47]: ≥ 100 µM | MIC [48]: ≥ 50 µM | MIC [49]: > 50 µM | MIC [50]: ≥ 50 µM | MIC [51]: ≥ 50 µM | MIC [52]: ≥ 42.4 µM | MIC [53]: 11.6 µM (≈ 25 µg/mL) | MIC [54]: > 100 µM and 50 µM | MIC [29]: 58 µM and 50 µM
